Experimental data reported in patent US8399689B2, “Chrysophaentin antimicrobial compounds that inhibit FtsZ protein” (The United States of America, as represented by the …, priority 2010, dated 2013).
In brackets after ≈: the same amount, converted by molar mass. Entries after “also recorded” stand apart in the source; their conditions may differ.

Key:
[1] = test system: human colon tumor cell line HCT-116; test: Cytotoxicity, HCT-116; assay type: cell-based; conditions: did not inhibit growth at concentrations as high as
[2] = test system: vancomycin-resistant E. Faecium (VRE, ATCC 700221); test: Microbroth dilution assay, VREF; assay type: cell-based, Enterococcus faecium; conditions: microbroth dilution, concentration at which growth is reduced by 50%
Method: (§1) Compounds 1-8 were tested for antimicrobial activity against Staphylococcus aureus (SA, ATCC 25923), methicillin-resistant S. aureus (MRSA, ATCC BAA-41), multidrug-resistant S. aureus (MDRSA, ATCC BAA-44), Enterococcus faecium (EF, ATCC 49032), vancomycin-resistant E. Faecium (VRE, ATCC 700221), and Bacillus subtilis (ATCC 49343) using a modified disk diffusion assay and microbroth liquid dilution assays. For disk diffusion assays, agar plates seeded with suspensions of bacteria were prepared by adding 500 μL of a 24 h culture of bacteria to 100 mL of autoclaved Mueller Hinton II agar and cooled to 55° C. Seeded liquid agar (10 mL) was transferred immediately to square Petri dishes and allowed to cool for 1 h. Control drugs used for each microorganism included kanamycin (50 μg) for S. aureus, and nitrofurantoin (25 μg) for MRSA. Following incubation at 37° C. for 18 h, zones of inhibition were measured. MICso values for compounds 1 and 4-8 were determined using a microbroth dilution assay outlined in the Clinical and Laboratory Standards Institute methods for susceptibility tests for bacteria that grow aerobically. Briefly, single bacterial colonies were used to inoculate 4 mL of Trypticase Soy broth (BD) for overnight growth and inoculum for each were diluted to 5×10^5 CFU/mL using the 0.5 McFarland standard. In a 96 well plate (Costar, round bottom), control antibiotics (oxacillin for SA and MRSA, vancomycin for EF and VRE, chloramphenicol for B. subtilis) or natural product inhibitors were added to Muller Hinton II broth (for S. aureus, MRSA, and B. subtilis) or 10% brain heart infusion broth (for E. faecium and VRE) in the first column of the well plates, and serially diluted across the plate, reserving wells for a positive growth control (no treatment). 10 μL of diluted bacteria were added to all wells with the exception of those kept for broth blanks (MHII or brain heart infusion broth only). Plates were incubated at 37° C. overnight and read at absorbance 600 nm on a Molecular Devices plate reader. Growth curves were plotted and ICso values obtained using Kalidagraph software.

GTP binding site of FtsZ = GTP binding site of FtsZ (Escherichia coli, UniProt P0A9A6); test: Competition STD NMR with GTPγS; set-up: species or system E. coli; conditions: for mode of binding relative to GTP/GTPγS: GTPγS titration 0.5-3.0 equivalents
GTP binding site of FtsZ, sequence (P0A9A6 whole entry): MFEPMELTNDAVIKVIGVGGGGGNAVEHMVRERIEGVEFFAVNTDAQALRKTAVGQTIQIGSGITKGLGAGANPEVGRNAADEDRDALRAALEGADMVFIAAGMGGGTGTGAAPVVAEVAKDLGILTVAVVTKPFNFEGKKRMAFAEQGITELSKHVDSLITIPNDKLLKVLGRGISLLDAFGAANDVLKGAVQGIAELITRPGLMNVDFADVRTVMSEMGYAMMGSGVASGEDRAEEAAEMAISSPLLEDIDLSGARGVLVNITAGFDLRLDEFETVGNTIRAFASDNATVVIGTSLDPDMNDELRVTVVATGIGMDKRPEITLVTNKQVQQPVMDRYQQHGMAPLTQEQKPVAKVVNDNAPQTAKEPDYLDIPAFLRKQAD

tubulin = test: Tubulin polymerization assay; assay type: biochemical; conditions: for effect on tubulin polymerization: at 150 μM, 15 times its IC50 for FtsZ
recombinant E. coli FtsZ = recombinant E. coli FtsZ (Escherichia coli, UniProt P0A9A6); test: Saturation Transfer Difference (STD) NMR binding to FtsZ
recombinant E. coli FtsZ, sequence (P0A9A6 whole entry): as above
Method: Saturation transfer difference (STD) NMR experiments were recorded with the carrier set at −1 or 12 ppm for on-resonance irradiation and at 40 ppm for off-resonance irradiation. […] Selective protein saturation (2 s) was accomplished by using a train of 50 ms Gauss-shaped pulses, each separated by a 1 ms delay, at an experimentally determined optimal power (49 dB on our probe); a T1ρ filter (30 ms) was incorporated to suppress protein resonances. Experiments were recorded using a minimum of 1024 scans and 32K points. On- and off-resonance spectra were processed independently, and subtracted to provide a difference spectrum.
Saturation Transfer Difference (STD) NMR is an NMR technique that provides atomic level detail of the epitope used by a small molecule ligand to bind its macromolecular (protein) receptor. […] Spectra of were recorded at 298 K with the carrier set at −1 or 12 ppm for on-resonance irradiation and 50 ppm for off-resonance irradiation. Selective protein saturation (duration ranging from 1 to 5 s) was accomplished using a train of 50 ms Gauss-shaped pulses, each separated by a 1 ms delay, at an experimentally determined optimal power (49 dB); a T1ρ filter (30 ms) was incorporated to suppress protein resonances. A minimum of 512 scans and 4000 points were used to ensure high quality data with good signal-to-noise. On- and off-resonance spectra were processed independently, and subtracted to provide a difference spectrum. […] STD enhancements were measured by integrating difference spectra where the peaks showing the strongest enhancements relative to the control spectra were used to normalize all non-overlapped peaks in the difference spectra.

[3] = test system: multidrug-resistant S. aureus (MDRSA, ATCC BAA-44); test: Microbroth dilution assay, MDRSA; assay type: cell-based; conditions: Staphylococcus aureus, ATCCBAA44
Method: (§2) Compounds 1-8 were tested for antimicrobial activity against Staphylococcus aureus (SA, ATCC 25923), methicillin-resistant S. aureus (MRSA, ATCC BAA-41), multidrug-resistant S. aureus (MDRSA, ATCC BAA-44), Enterococcus faecium (EF, ATCC 49032), vancomycin-resistant E. Faecium (VRE, ATCC 700221), and Bacillus subtilis (ATCC 49343) using a modified disk diffusion assay and microbroth liquid dilution assays. For disk diffusion assays, agar plates seeded with suspensions of bacteria were prepared by adding 500 μL of a 24 h culture of bacteria to 100 mL of autoclaved Mueller Hinton II agar and cooled to 55° C. Seeded liquid agar (10 mL) was transferred immediately to square Petri dishes and allowed to cool for 1 h. Control drugs used for each microorganism included kanamycin (50 μg) for S. aureus, and nitrofurantoin (25 μg) for MRSA. Following incubation at 37° C. for 18 h, zones of inhibition were measured. MICso values for compounds 1 and 4-8 were determined using a microbroth dilution assay outlined in the Clinical and Laboratory Standards Institute methods for susceptibility tests for bacteria that grow aerobically. […] Plates were incubated at 37° C. overnight and read at absorbance 600 nm on a Molecular Devices plate reader. […]

[4] = test system: Staphylococcus aureus (SA, ATCC 25923); test: Agar disk diffusion assay, S. aureus; assay type: cell-based
Method: as §1

[5] = test system: Staphylococcus aureus (SA, ATCC 25923); test: Microbroth dilution assay, S. aureus; assay type: cell-based; conditions: concentration at which growth is reduced by 50%; for MIC50 (μg/mL) S. aureus: microbroth dilution
Method: as §1

[6] = test system: Enterococcus faecium (EF, ATCC 49032); test: Microbroth dilution assay, E. faecium; assay type: cell-based; conditions: concentration at which growth is reduced by 50%
Method: as §1

[7] = test system: Bacillus subtilis (ATCC 49343); test: Microbroth dilution assay, B. subtilis; assay type: cell-based; conditions: ATCC49343
Method: as §2

[8] = test system: vancomycin-resistant E. Faecium (VRE, ATCC 700221); test: Agar disk diffusion assay, VREF; assay type: cell-based, Enterococcus faecium
Method: as §1

[9] = test system: control mammalian cell line BSC-1; test: Cytotoxicity, BSC-1 control cells; assay type: cell-based; conditions: no cytotoxicity at concentrations as high as
[10] = test system: Enterococcus faecium (EF, ATCC 49032); test: Agar disk diffusion assay, E. faecium; assay type: cell-based
Method: as §1

[11] = 100-fold excess of compound over FtsZ
[12] = Lowest concentrations leading to 8-10 mm zones of inhibition

Oc1cc(O)c2c(c1)C/C(Cl)=C\Cc1cc(c(Cl)cc1O)Oc1c(O)cc(cc1O)C/C(Cl)=C\Cc1cc(c(Cl)cc1O)O2 [Compound 1, chrysophaentin 1]
concentration without growth inhibition, HCT-116 [1]: > 50 µg/mL
MIC50 ([2]; Enterococcus faecium, read-out: MIC50 (μg/mL) VREF): 2.9 ± 0.8 µg/mL (≈ 4.28 µM)
MIC50 (μg/mL) VREF [2]: 2.8 ± 0.8 µg/mL (≈ 4.13 µM)
MIC50 (μg/mL) VREF ([2]; listed as Chrysophaentin 1): 2.8 ± 0.8 µg/mL (≈ 4.13 µM)
decrease in STD NMR signal intensity of compound on addition of GTPγS (GTP binding site of FtsZ; 0.5 equivalents GTPγS (625 μM), 1.25 mM compound, 12.5 μM FtsZ): ~50%
mode of binding relative to GTP/GTPγS (GTP binding site of FtsZ; listed as chrysophaentin 1): in a competitive manner; also recorded: bind competitively
mode of binding relative to GTP/GTPγS (GTP binding site of FtsZ; listed as compound 1): competitive inhibitor of GTP binding to FtsZ
selectivity for FtsZ over tubulin (tubulin): ≥ 15 fold
effect on tubulin polymerization (tubulin; listed as chrysophaentin 1): no effect; also recorded: does not affect
effect on tubulin polymerization (tubulin; listed as compound 1): no effect
tubulin polymerization velocity v (tubulin; chrysophaentin 1 at 150 μM, paclitaxel, nocodazole at standardized concentrations): 49 min⁻¹
STD NMR combined enhancement, overlapped protons H-6′ and H-8 (recombinant E. coli FtsZ; [11]): ~50%
STD NMR enhancement, proton H-3 (recombinant E. coli FtsZ; [11]): 100%
STD NMR enhancement, proton H-3′ (recombinant E. coli FtsZ; [11]): 98%
STD NMR enhancement, proton H-12 (recombinant E. coli FtsZ; [11]): 100%
STD NMR enhancement, proton H-14 (recombinant E. coli FtsZ; [11]): 100%
STD NMR enhancement, aromatic protons H-6 and H-6′ (recombinant E. coli FtsZ; as restated with the docked model): ~50%
MIC50 [3]: 1.3 ± 0.4 µg/mL (≈ 1.92 µM)
Agar disk diffusion (μg/disk) S. aureus [4, 12]: 2 μg/disk
zone of inhibition at 2 µg/disc ([4]; Staphylococcus aureus, ATCC25923, at 2 μg/disk): 10 mm
MIC50 ([5]; Staphylococcus aureus, ATCC25923, microbroth dilution, read-out: MIC50 (μg/mL) S. aureus): 1.8 ± 0.6 µg/mL (≈ 2.65 µM)
MIC50 (μg/mL) S. aureus [5]: 1.8 ± 0.6 µg/mL (≈ 2.65 µM)
MIC50 (μg/mL) S. aureus ([5]; listed as chrysophaentin 1): 1.8 ± 0.6 µg/mL (≈ 2.65 µM)
MIC50 ([6]; Enterococcus faecium, ATCC49032, microbroth dilution, read-out: MIC50 (μg/mL) E. faecium): 3.8 ± 1.9 µg/mL (≈ 5.6 µM)
MIC50 (μg/mL) E. faecium ([6]; microbroth dilution): 3.5 ± 1.8 µg/mL (≈ 5.16 µM)
MIC50 [7]: 7.3 ± 3.7 µg/mL (≈ 10.8 µM)
zone of inhibition at 2 µg/disc ([8]; Enterococcus faecium, at 2 μg/disk): 10 mm
Agar disk diffusion (μg/disk) VREF [8, 12]: 2 μg/disk
concentration without cytotoxicity, BSC-1 [9]: > 100 µg/mL
zone of inhibition at 2 µg/disc ([10]; Enterococcus faecium, ATCC49032, at 2 μg/disk): 10 mm
Agar disk diffusion (μg/disk) E. faecium [10, 12]: 2 μg/disk
